A word on the Kd: it is the free concentration of one partner at which half of the binding sites on the other are occupied at equilibrium, for simple one-to-one binding. Low readings indicate higher affinity, high ones lower affinity.

Here are results for three compounds from article PMC3494461 (Journal of the American Chemical Society, 2012).

Structures are written as SMILES.

Assay [1] addresses T1, DXP synthase (Escherichia coli, UniProt P77488).
T1 sequence (P77488 2-620): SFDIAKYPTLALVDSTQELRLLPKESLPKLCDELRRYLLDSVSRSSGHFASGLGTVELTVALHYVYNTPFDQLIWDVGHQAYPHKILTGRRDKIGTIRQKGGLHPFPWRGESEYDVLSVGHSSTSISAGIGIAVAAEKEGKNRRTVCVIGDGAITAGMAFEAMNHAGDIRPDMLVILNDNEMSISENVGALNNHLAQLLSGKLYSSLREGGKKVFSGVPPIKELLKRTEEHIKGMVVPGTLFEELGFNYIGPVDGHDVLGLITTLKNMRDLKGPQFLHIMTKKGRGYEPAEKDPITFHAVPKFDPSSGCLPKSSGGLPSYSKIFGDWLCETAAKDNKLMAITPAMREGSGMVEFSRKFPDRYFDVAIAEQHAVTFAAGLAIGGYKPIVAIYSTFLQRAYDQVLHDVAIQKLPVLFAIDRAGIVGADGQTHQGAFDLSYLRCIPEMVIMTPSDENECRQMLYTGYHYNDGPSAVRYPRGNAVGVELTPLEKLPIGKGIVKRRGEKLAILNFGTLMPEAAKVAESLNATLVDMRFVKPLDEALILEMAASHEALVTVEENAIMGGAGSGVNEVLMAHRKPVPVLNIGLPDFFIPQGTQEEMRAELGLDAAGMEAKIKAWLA
The assay can be described thus: steady-state DXP formation, Michaelis-Menten plot. It is filed as biochemical. As to conditions: D-GAP supplied as D,L-GAP; with pyruvate.

Assay [2] concerns the target T1, DXP synthase. The assay can be described thus: near-UV CD of enzyme-bound ThDP. It is filed as binding. As to conditions: AP tautomer dominant at pH 7.98.
Assay [3] deals with T1, DXP synthase. Briefly: CD titration at […] nm. It is filed as binding.

As for `O=C[C@H](O)COP(=O)(O)O` [D-GAP], the Km entry at DXP synthase [1] is “Michaelis-Menten plot to determine the Km for D-GAP”.
For `Cc1ncc(C[n+]2csc(CCOP(=O)(O)OP(=O)(O)O)c2C)c(N)n1` [ThDP], the “near-UV CD of enzyme-bound ThDP (negative band at 320 nm)” value at DXP synthase [2] is on record as “suggesting the preponderance of the AP tautomer of ThDP bound to the enzyme”.
On DXP synthase [3], `CC(=O)C(=O)O` [pyruvate] gave a Kd of around 90 µM.
